{"source": "paper PMC5218480", "about": "(PLoS ONE, 2017)", "system": "MV-4-11 cells", "assay": "Gene expression microarray analysis (Affymetrix PrimeView) and GSEA", "assay_type": "cell-based, human", "parameters": "RFU PODN (11730768_x_at) / Fold change /veh PODN (11730768_x_at) / RFU LINC00158 (11744669_a_at) / Fold change /veh LINC00158 (11744669_a_at) / RFU DUSP10 (11751237_a_at) / Fold change /veh DUSP10 (11751237_a_at) / RFU ID3 (11757404_x_at) / Fold change /veh ID3 (11757404_x_at) / RFU PLEKHG5 (11737974_s_at) / Fold change /veh PLEKHG5 (11737974_s_at) / RFU LRRC4B (11730491_at) / Fold change /veh LRRC4B (11730491_at) / RFU GIMAP4 (11747438_a_at) / Fold change /veh GIMAP4 (11747438_a_at) / RFU KRT8 (11758183_x_at) / Fold change /veh KRT8 (11758183_x_at) / RFU CNN1 (11734310_a_at) / Fold change /veh CNN1 (11734310_a_at) / RFU VPS37D (11726825_at) / Fold change /veh VPS37D (11726825_at) / RFU C10orf10 (11716522_x_at) / Fold change /veh C10orf10 (11716522_x_at) / RFU KIR2DL2 /// KIR2DL4 /// KIR2DL5A /// KIR2DL5B /// KIR2DS1 /// KIR2DS2 /// KIR2DS3 /// KIR2DS4 /// KIR3DL3 /// KIR3DL3 /// KIR3DS1 (11738374_at) / Fold change /veh KIR2DL2 /// KIR2DL4 /// KIR2DL5A /// KIR2DL5B /// KIR2DS1 /// KIR2DS2 /// KIR2DS3 /// KIR2DS4 /// KIR3DL3 /// KIR3DL3 /// KIR3DS1 (11738374_at) / RFU C1QL1 (11718748_at) / Fold change /veh C1QL1 (11718748_at) / RFU TMPRSS4 (11747572_a_at) / Fold change /veh TMPRSS4 (11747572_a_at) / RFU HAMP (11756126_x_at) / Fold change /veh HAMP (11756126_x_at) / RFU RNFT2 (11725882_a_at) / Fold change /veh RNFT2 (11725882_a_at) / RFU NR4A2 (11747474_a_at) / Fold change /veh NR4A2 (11747474_a_at) / RFU ABCC12 (11746883_a_at) / Fold change /veh ABCC12 (11746883_a_at) / RFU TMEM136 (11760407_x_at) / Fold change /veh TMEM136 (11760407_x_at) / RFU CLDN22 /// WWC2 (11732394_at) / Fold change /veh CLDN22 /// WWC2 (11732394_at) / RFU HLA-DPB1 (11760878_x_at) / Fold change /veh HLA-DPB1 (11760878_x_at) / RFU SPINT1 (11716480_a_at) / Fold change /veh SPINT1 (11716480_a_at) / RFU GAP43 (11754022_s_at) / Fold change /veh GAP43 (11754022_s_at) / RFU A4GNT (11735810_at) / Fold change /veh A4GNT (11735810_at) / RFU PRB3 (11715151_x_at) / Fold change /veh PRB3 (11715151_x_at) / RFU TUBB4B (11761932_at) / Fold change /veh TUBB4B (11761932_at) / RFU CAPN14 (11732068_a_at) / Fold change /veh CAPN14 (11732068_a_at) / RFU TMCC2 (11721928_a_at) / Fold change /veh TMCC2 (11721928_a_at) / RFU IRGQ (11745062_a_at) / Fold change /veh IRGQ (11745062_a_at) / RFU FAM174B (11720279_a_at) / Fold change /veh FAM174B (11720279_a_at) / RFU TMPRSS4 (11748680_a_at) / Fold change /veh TMPRSS4 (11748680_a_at) / RFU FAM212B (11763350_a_at) / Fold change /veh FAM212B (11763350_a_at) / RFU PLEKHG5 (11743358_a_at) / Fold change /veh PLEKHG5 (11743358_a_at) / RFU ZSCAN30 (11745921_a_at) / Fold change /veh ZSCAN30 (11745921_a_at) / RFU CMKLR1 (11741424_a_at) / Fold change /veh CMKLR1 (11741424_a_at) / RFU LOC101060620 /// MAPK8IP1 (11723275_at) / Fold change /veh LOC101060620 /// MAPK8IP1 (11723275_at) / RFU SPTSSB (11747773_x_at) / Fold change /veh SPTSSB (11747773_x_at) / RFU PRSS12 (11739890_at) / Fold change /veh PRSS12 (11739890_at) / RFU BIN1 (11741810_x_at) / Fold change /veh BIN1 (11741810_x_at) / RFU WNT11 (11732464_a_at) / Fold change /veh WNT11 (11732464_a_at) / RFU C10orf10 (11716521_a_at) / Fold change /veh C10orf10 (11716521_a_at) / RFU C5orf56 (11738089_at) / Fold change /veh C5orf56 (11738089_at) / RFU CYB561 (11721691_x_at) / Fold change /veh CYB561 (11721691_x_at) / RFU ANKRD19P (11752326_a_at) / Fold change /veh ANKRD19P (11752326_a_at) / RFU OR2T12 /// OR2T33 /// OR2T8 (11738714_s_at) / Fold change /veh OR2T12 /// OR2T33 /// OR2T8 (11738714_s_at) / RFU VCAN (11748164_a_at) / Fold change /veh VCAN (11748164_a_at) / RFU JSRP1 (11732532_at) / Fold change /veh JSRP1 (11732532_at) / RFU KRTAP10-11 (11738290_x_at) / Fold change /veh KRTAP10-11 (11738290_x_at) / RFU MYO3A (11730013_a_at) / Fold change /veh MYO3A (11730013_a_at) / RFU EBF3 (11725865_a_at) / Fold change /veh EBF3 (11725865_a_at) / RFU CAMK2N1 (11719241_x_at) / Fold change /veh CAMK2N1 (11719241_x_at) / RFU C5orf56 (11738088_a_at) / Fold change /veh C5orf56 (11738088_a_at) / RFU OLFML3 (11715873_a_at) / Fold change /veh OLFML3 (11715873_a_at) / RFU LOC100653217 /// NTM (11731650_a_at) / Fold change /veh LOC100653217 /// NTM (11731650_a_at) / RFU MAPK11 (11762145_a_at) / Fold change /veh MAPK11 (11762145_a_at) / RFU FIZ1 (11724087_x_at) / Fold change /veh FIZ1 (11724087_x_at) / RFU OASL (11726364_x_at) / Fold change /veh OASL (11726364_x_at) / RFU SOX15 (11748057_x_at) / Fold change /veh SOX15 (11748057_x_at) / RFU CD79A (11719716_a_at) / Fold change /veh CD79A (11719716_a_at) / RFU HIST1H1D (11736915_at) / Fold change /veh HIST1H1D (11736915_at) / RFU CASKIN2 (11723855_a_at) / Fold change /veh CASKIN2 (11723855_a_at) / RFU LOC730098 (11760151_x_at) / Fold change /veh LOC730098 (11760151_x_at) / RFU OR4N2 (11742367_at) / Fold change /veh OR4N2 (11742367_at) / RFU PRRT2 (11749266_a_at) / Fold change /veh PRRT2 (11749266_a_at) / RFU SNX32 (11753110_a_at) / Fold change /veh SNX32 (11753110_a_at) / RFU CDHR5 (11726645_a_at) / Fold change /veh CDHR5 (11726645_a_at) / RFU RCAN1 (11760418_a_at) / Fold change /veh RCAN1 (11760418_a_at) / RFU FAM167A (11723789_a_at) / Fold change /veh FAM167A (11723789_a_at) / RFU FAM26E (11764081_at) / Fold change /veh FAM26E (11764081_at) / RFU ISYNA1 (11749810_s_at) / Fold change /veh ISYNA1 (11749810_s_at) / RFU ACY1 (11761880_at) / Fold change /veh ACY1 (11761880_at) / RFU 11764098_at / Fold change /veh 11764098_at / RFU SAMD14 (11745864_x_at) / Fold change /veh SAMD14 (11745864_x_at) / RFU NPB (11741838_a_at) / Fold change /veh NPB (11741838_a_at) / RFU TMPRSS6 (11731388_a_at) / Fold change /veh TMPRSS6 (11731388_a_at) / RFU KRTAP10-2 (11738614_at) / Fold change /veh KRTAP10-2 (11738614_at) / RFU ARHGAP8 /// PRR5-ARHGAP8 (11727945_x_at) / Fold change /veh ARHGAP8 /// PRR5-ARHGAP8 (11727945_x_at) / RFU KRTAP5-7 /// NADSYN1 (11734609_at) / Fold change /veh KRTAP5-7 /// NADSYN1 (11734609_at) / RFU RASL12 (11751679_a_at) / Fold change /veh RASL12 (11751679_a_at) / RFU CDKN2B (11736163_a_at) / Fold change /veh CDKN2B (11736163_a_at) / RFU PRF1 (11729649_at) / Fold change /veh PRF1 (11729649_at) / RFU, ZNF638 /// ZNF638-IT1 / Fold change vs veh, ZNF638 /// ZNF638-IT1 / RFU, PANK3 / Fold change vs veh, PANK3 / RFU, SH3YL1 / Fold change vs veh, SH3YL1 / RFU, ZEB2 / Fold change vs veh, ZEB2 / RFU, NRIP1 / Fold change vs veh, NRIP1 / RFU, PTTG1IP / Fold change vs veh, PTTG1IP / RFU, CAPN2 / Fold change vs veh, CAPN2 / RFU, MED14 / Fold change vs veh, MED14 / RFU, SNORA58 / Fold change vs veh, SNORA58 / RFU, C1orf63 / Fold change vs veh, C1orf63 / RFU, LRRFIP1 / Fold change vs veh, LRRFIP1 / RFU, NDUFAF7 / Fold change vs veh, NDUFAF7 / RFU, SLC12A2 / Fold change vs veh, SLC12A2 / RFU, IBTK / Fold change vs veh, IBTK / RFU, ESF1 / Fold change vs veh, ESF1 / Fold change vs veh, TMEM50B / RFU, TAOK1 / Fold change vs veh, TAOK1 / RFU, ACBD3 / Fold change vs veh, ACBD3 / RFU, TMA16 / Fold change vs veh, TMA16 / RFU, RWDD3 / Fold change vs veh, RWDD3 / RFU, BCAT1 / Fold change vs veh, BCAT1 / RFU, EDEM3 / Fold change vs veh, EDEM3 / RFU, TMEM33 / Fold change vs veh, TMEM33 / RFU, WDR75 / Fold change vs veh, WDR75 / RFU, AHCTF1 / Fold change vs veh, AHCTF1 / RFU, TFRC / Fold change vs veh, TFRC / RFU, ZDHHC17 / Fold change vs veh, ZDHHC17 / RFU, NOM1 / Fold change vs veh, NOM1 / RFU, ARL8B / Fold change vs veh, ARL8B / RFU, ZBTB11 / Fold change vs veh, ZBTB11 / RFU, TAMM41 / Fold change vs veh, TAMM41 / RFU, KIAA1704 /// LOC100996395 / Fold change vs veh, KIAA1704 /// LOC100996395 / RFU, ING1 / Fold change vs veh, ING1 / RFU, TRMT61B / Fold change vs veh, TRMT61B / RFU, FUBP3 / Fold change vs veh, FUBP3 / RFU, TP53 / Fold change vs veh, TP53 / RFU, TNKS2 / Fold change vs veh, TNKS2 / RFU, ZFP14 / Fold change vs veh, ZFP14 / RFU, ACTR2 / Fold change vs veh, ACTR2 / RFU, PPP3R1 / Fold change vs veh, PPP3R1 / RFU, PIK3R1 / Fold change vs veh, PIK3R1 / RFU, HNRNPA1 / Fold change vs veh, HNRNPA1 / RFU, RNF170 / Fold change vs veh, RNF170 / RFU, ZNF28 / Fold change vs veh, ZNF28 / RFU, RNGTT / Fold change vs veh, RNGTT / RFU, OGT / Fold change vs veh, OGT / RFU, BRD1 / Fold change vs veh, BRD1 / RFU, MARS / Fold change vs veh, MARS / RFU, ZNF655 / Fold change vs veh, ZNF655 / RFU, FAHD1 / Fold change vs veh, FAHD1 / RFU, BDP1 / Fold change vs veh, BDP1 / RFU, LRRCC1 / Fold change vs veh, LRRCC1 / RFU, ARID1A / Fold change vs veh, ARID1A / RFU, ZNF146 / Fold change vs veh, ZNF146 / RFU, ZNF330 / Fold change vs veh, ZNF330 / RFU, GPN3 / Fold change vs veh, GPN3 / RFU, C9orf123 / Fold change vs veh, C9orf123 / RFU, N4BP2L2 / Fold change vs veh, N4BP2L2 / RFU, ARFIP1 / Fold change vs veh, ARFIP1 / RFU, FAM179B / Fold change vs veh, FAM179B / RFU, BCL10 / Fold change vs veh, BCL10 / RFU, UHRF1BP1L / Fold change vs veh, UHRF1BP1L / RFU, BET1 / Fold change vs veh, BET1 / RFU, CNOT2 / Fold change vs veh, CNOT2 / RFU, ZNF268 / Fold change vs veh, ZNF268 / Fold change vs veh, ZNF507 / RFU, DGCR2 / Fold change vs veh, DGCR2 / RFU, WDSUB1 / Fold change vs veh, WDSUB1 / Fold change vs veh, HSP90B1 /// MIR3652 / RFU, ADSS / Fold change vs veh, ADSS / RFU, GK / Fold change vs veh, GK / RFU, ZNF148 / Fold change vs veh, ZNF148 / RFU, TAF9 / Fold change vs veh, TAF9 / RFU, SLC1A5 / Fold change vs veh, SLC1A5 / RFU, SLMO2 / Fold change vs veh, SLMO2 / RFU, ABCC4 / Fold change vs veh, ABCC4 / RFU, LOC101060439 /// RAP1B / Fold change vs veh, LOC101060439 /// RAP1B / RFU, RFX7 / Fold change vs veh, RFX7 / RFU, GTPBP10 / Fold change vs veh, GTPBP10 / RFU, CNEP1R1 / Fold change vs veh, CNEP1R1 / RFU, BIVM-ERCC5 /// ERCC5 / Fold change vs veh, BIVM-ERCC5 /// ERCC5 / RFU, ILF3 / Fold change vs veh, ILF3 / RFU 11762660_at / Fold change /veh 11762660_at / RFU VCAN (11757783_s_at) / Fold change /veh VCAN (11757783_s_at) / RFU DDX43 (11728927_at) / Fold change /veh DDX43 (11728927_at) / RFU KRT8 (11758188_x_at) / Fold change /veh KRT8 (11758188_x_at) / RFU NKD1 (11759106_at) / Fold change /veh NKD1 (11759106_at) / RFU SRD5A1 (11742802_a_at) / Fold change /veh SRD5A1 (11742802_a_at) / RFU TPSAB1 /// TPSB2 (11721975_s_at) / Fold change /veh TPSAB1 /// TPSB2 (11721975_s_at) / RFU GSTM3 (11746129_a_at) / Fold change /veh GSTM3 (11746129_a_at) / RFU IL23R (11737362_x_at) / Fold change /veh IL23R (11737362_x_at) / RFU TMEM51 (11727254_a_at) / Fold change /veh TMEM51 (11727254_a_at) / RFU PIWIL2 (11732686_x_at) / Fold change /veh PIWIL2 (11732686_x_at) / RFU ORM1 (11744905_x_at) / Fold change /veh ORM1 (11744905_x_at) / RFU CCDC152 (11743942_at) / Fold change /veh CCDC152 (11743942_at) / RFU ECM1 (11717891_a_at) / Fold change /veh ECM1 (11717891_a_at) / RFU IL23R (11748794_a_at) / Fold change /veh IL23R (11748794_a_at) / RFU TNFAIP8L3 (11732012_x_at) / Fold change /veh TNFAIP8L3 (11732012_x_at) / RFU MBOAT4 (11741988_at) / Fold change /veh MBOAT4 (11741988_at) / RFU 11764193_at / Fold change /veh 11764193_at / RFU TMEM53 (11763286_at) / Fold change /veh TMEM53 (11763286_at) / RFU MAGEB2 (11727129_at) / Fold change /veh MAGEB2 (11727129_at) / RFU TMEM200A (11744735_a_at) / Fold change /veh TMEM200A (11744735_a_at) / RFU CCDC152 (11751479_a_at) / Fold change /veh CCDC152 (11751479_a_at) / RFU FAM211A (11726209_a_at) / Fold change /veh FAM211A (11726209_a_at) / RFU RGS16 (11746705_a_at) / Fold change /veh RGS16 (11746705_a_at) / RFU VCAN (11755009_s_at) / Fold change /veh VCAN (11755009_s_at) / RFU RHOB (11743442_s_at) / Fold change /veh RHOB (11743442_s_at) / RFU RGS16 (11720943_a_at) / Fold change /veh RGS16 (11720943_a_at) / RFU RGS16 (11720944_at) / Fold change /veh RGS16 (11720944_at) / RFU, VPS4B / Fold change vs veh, VPS4B / RFU, CREB1 / Fold change vs veh, CREB1 / RFU, DNAJC13 / Fold change vs veh, DNAJC13 / RFU, GNAQ / Fold change vs veh, GNAQ / RFU, CDK5R1 / Fold change vs veh, CDK5R1 / RFU, ZRANB3 / Fold change vs veh, ZRANB3 / RFU, CUL4A / Fold change vs veh, CUL4A / RFU, CCNY / Fold change vs veh, CCNY / RFU, UFL1 / Fold change vs veh, UFL1 / RFU, COG3 / Fold change vs veh, COG3 / RFU, DIAPH2 / Fold change vs veh, DIAPH2 / RFU, SKA2 / Fold change vs veh, SKA2 / RFU, AFF3 / Fold change vs veh, AFF3 / RFU, LMF1 / Fold change vs veh, LMF1 / RFU, IPO11 / Fold change vs veh, IPO11 / RFU, DFFB / Fold change vs veh, DFFB / RFU, FOXP1 / Fold change vs veh, FOXP1 / RFU, CARD8 / Fold change vs veh, CARD8 / RFU, STRN3 / Fold change vs veh, STRN3 / RFU, ADK / Fold change vs veh, ADK / RFU, RASSF2 / Fold change vs veh, RASSF2 / RFU, WIPF1 / Fold change vs veh, WIPF1 / RFU, LARP1B / Fold change vs veh, LARP1B / RFU, RASA1 / Fold change vs veh, RASA1 / RFU, RB1 / Fold change vs veh, RB1 / RFU, PPFIA1 / Fold change vs veh, PPFIA1 / RFU, MAT2A / Fold change vs veh, MAT2A / RFU, CCT5 / Fold change vs veh, CCT5 / RFU, WDR92 / Fold change vs veh, WDR92 / RFU, CUX1 / Fold change vs veh, CUX1 / RFU, TTC7A / Fold change vs veh, TTC7A / RFU, TMEM135 / Fold change vs veh, TMEM135 / RFU, DEPTOR / Fold change vs veh, DEPTOR / RFU, CPM / Fold change vs veh, CPM / RFU, DNAJB6 / Fold change vs veh, DNAJB6 / RFU, CACNA2D3 / Fold change vs veh, CACNA2D3 / RFU, DTX4 / Fold change vs veh, DTX4 / RFU, TFCP2 / Fold change vs veh, TFCP2 / RFU, GMCL1 /// GMCL1P1 / Fold change vs veh, GMCL1 /// GMCL1P1 / RFU, AEBP2 / Fold change vs veh, AEBP2 / RFU, SNHG1 /// SNORD22 /// SNORD25 /// SNORD26 /// SNORD27 /// SNORD28 /// SNORD29 /// SNORD31 / Fold change vs veh, SNHG1 /// SNORD22 /// SNORD25 /// SNORD26 /// SNORD27 /// SNORD28 /// SNORD29 /// SNORD31 / Fold change (Aza/veh), C12orf56 (ProbeSet 11735607_a_at) / Fold change (ACY-1035/veh), C12orf56 (ProbeSet 11735607_a_at) / Fold change (Aza/veh), FGFR1OP (ProbeSet 11751329_s_at) / Fold change (ACY-1035/veh), FGFR1OP (ProbeSet 11751329_s_at) / Fold change (Aza/veh), VPS36 (ProbeSet 11739960_a_at) / Fold change (ACY-1035/veh), VPS36 (ProbeSet 11739960_a_at) / RFU SYPL1 (11715823_x_at) / Fold change /veh SYPL1 (11715823_x_at) / RFU IGFBP7 (11715501_s_at) / Fold change /veh IGFBP7 (11715501_s_at) / RFU REEP3 (11722064_at) / Fold change /veh REEP3 (11722064_at) / RFU IGLL1 (11728026_x_at) / Fold change /veh IGLL1 (11728026_x_at): dose or concentration left out as unconfirmed", "details": "ProbeSet 11722463_a_at; LIST B", "data": [{"compound": "Nc1ncn([C@@H]2O[C@H](CO)[C@@H](O)[C@H]2O)c(=O)n1", "note": "[azacitidine]", "values": [{"measurement": "RFU, TNKS2", "result": 47.93, "unit": "RFU"}]}]}
